Reference: the kinase profiling compilation of Christmann-Franck et al. (2016)

biological target: STK33 (human) (UniProt Q9BYT3); assay: radiometric filter-binding kinase assay, Kinase HotSpot; settings: compound 0.5 µM; ATP 10 µM

Row | SMILES | residual activity
1 | CC(C)[C@H](CO)Nc1nc(Nc2cccc(Cl)c2)c2ncn(C(C)C)c2n1 | 74.4%
2 | COc1ccc(-c2cnc3c(-c4ccsc4)cnn3c2)cc1 | 71.6%

biological target: PRKACA (human) (UniProt P17612); assay: as above; settings: compound 0.5 µM; ATP 10 µM

Row | SMILES | residual activity
3 | Oc1ccc(-c2nc(-c3ccc(F)cc3)c(-c3ccncc3)[nH]2)cc1 | 84.3%
4 | Cc1ccc(NC(=O)c2ccc(CN3CCN(C)CC3)cc2)cc1Nc1nc(-c2cccnc2)cs1 | 104%
5 | CC(C)[C@H](CO)Nc1nc(Nc2cccc(Cl)c2)c2ncn(C(C)C)c2n1 | 102%
6 | COc1ccc(-c2cnc3c(-c4ccsc4)cnn3c2)cc1 | 96.1%

biological target: MAPK8 (human) (UniProt P45983); assay: as above; settings: compound 0.5 µM; ATP 10 µM

Row | SMILES | residual activity
7 | Oc1ccc(-c2nc(-c3ccc(F)cc3)c(-c3ccncc3)[nH]2)cc1 | 98%
8 | Cc1ccc(NC(=O)c2ccc(CN3CCN(C)CC3)cc2)cc1Nc1nc(-c2cccnc2)cs1 | 107%
9 | CC(C)[C@H](CO)Nc1nc(Nc2cccc(Cl)c2)c2ncn(C(C)C)c2n1 | 99%
10 | COc1ccc(-c2cnc3c(-c4ccsc4)cnn3c2)cc1 | 100%

biological target: MAP3K10 (human) (UniProt Q02779); assay: as above; settings: compound 0.5 µM; ATP 10 µM

Row | SMILES | residual activity
11 | Oc1ccc(-c2nc(-c3ccc(F)cc3)c(-c3ccncc3)[nH]2)cc1 | 32.8%
12 | Cc1ccc(NC(=O)c2ccc(CN3CCN(C)CC3)cc2)cc1Nc1nc(-c2cccnc2)cs1 | 102%
13 | CC(C)[C@H](CO)Nc1nc(Nc2cccc(Cl)c2)c2ncn(C(C)C)c2n1 | 98%
14 | COc1ccc(-c2cnc3c(-c4ccsc4)cnn3c2)cc1 | 94.2%

biological target: CAMK2G (human) (UniProt Q13555); assay: as above; settings: compound 0.5 µM; ATP 10 µM

Row | SMILES | residual activity
15 | Oc1ccc(-c2nc(-c3ccc(F)cc3)c(-c3ccncc3)[nH]2)cc1 | 101%
16 | Cc1ccc(NC(=O)c2ccc(CN3CCN(C)CC3)cc2)cc1Nc1nc(-c2cccnc2)cs1 | 98.6%
17 | CC(C)[C@H](CO)Nc1nc(Nc2cccc(Cl)c2)c2ncn(C(C)C)c2n1 | 96.9%
18 | COc1ccc(-c2cnc3c(-c4ccsc4)cnn3c2)cc1 | 93.7%

biological target: MINK1 (human) (UniProt Q8N4C8); assay: as above; settings: compound 0.5 µM; ATP 10 µM
Sequence (Q8N4C8 whole entry, looked up): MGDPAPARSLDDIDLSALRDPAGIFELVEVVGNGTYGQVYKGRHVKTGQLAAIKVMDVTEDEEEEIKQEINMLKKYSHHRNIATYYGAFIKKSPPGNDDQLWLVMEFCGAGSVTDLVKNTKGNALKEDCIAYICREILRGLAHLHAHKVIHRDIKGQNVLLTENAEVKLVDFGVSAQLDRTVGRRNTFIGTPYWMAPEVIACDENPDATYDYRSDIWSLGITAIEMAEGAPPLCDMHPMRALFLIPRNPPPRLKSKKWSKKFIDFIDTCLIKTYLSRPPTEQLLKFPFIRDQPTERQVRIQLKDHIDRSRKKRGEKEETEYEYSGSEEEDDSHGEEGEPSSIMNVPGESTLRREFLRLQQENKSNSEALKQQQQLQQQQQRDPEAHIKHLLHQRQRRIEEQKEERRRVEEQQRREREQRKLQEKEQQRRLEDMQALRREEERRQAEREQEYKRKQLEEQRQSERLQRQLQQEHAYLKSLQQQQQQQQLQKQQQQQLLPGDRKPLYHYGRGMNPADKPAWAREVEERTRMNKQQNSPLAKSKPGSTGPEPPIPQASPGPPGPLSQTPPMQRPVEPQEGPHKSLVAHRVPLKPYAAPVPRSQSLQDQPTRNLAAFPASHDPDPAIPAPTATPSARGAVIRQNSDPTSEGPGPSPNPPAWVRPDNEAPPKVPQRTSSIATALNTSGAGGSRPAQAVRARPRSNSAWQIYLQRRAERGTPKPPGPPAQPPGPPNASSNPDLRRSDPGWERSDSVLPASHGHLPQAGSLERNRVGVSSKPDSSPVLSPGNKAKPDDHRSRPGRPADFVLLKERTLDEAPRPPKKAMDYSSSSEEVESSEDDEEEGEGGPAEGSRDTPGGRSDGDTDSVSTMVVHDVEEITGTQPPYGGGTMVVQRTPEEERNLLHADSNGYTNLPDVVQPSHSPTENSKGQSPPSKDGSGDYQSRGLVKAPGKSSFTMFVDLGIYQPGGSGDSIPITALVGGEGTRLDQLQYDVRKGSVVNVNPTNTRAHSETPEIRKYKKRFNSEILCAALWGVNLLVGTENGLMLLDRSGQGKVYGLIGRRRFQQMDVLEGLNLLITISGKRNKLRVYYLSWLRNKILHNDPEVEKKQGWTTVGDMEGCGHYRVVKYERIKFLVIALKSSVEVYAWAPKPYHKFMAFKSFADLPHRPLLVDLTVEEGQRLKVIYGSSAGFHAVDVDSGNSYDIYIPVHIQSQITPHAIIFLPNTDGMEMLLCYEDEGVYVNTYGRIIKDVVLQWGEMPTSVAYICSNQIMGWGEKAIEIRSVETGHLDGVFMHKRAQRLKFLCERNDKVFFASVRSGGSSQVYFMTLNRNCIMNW

Row | SMILES | residual activity
19 | Oc1ccc(-c2nc(-c3ccc(F)cc3)c(-c3ccncc3)[nH]2)cc1 | 102%
20 | Cc1ccc(NC(=O)c2ccc(CN3CCN(C)CC3)cc2)cc1Nc1nc(-c2cccnc2)cs1 | 86.7%
21 | CC(C)[C@H](CO)Nc1nc(Nc2cccc(Cl)c2)c2ncn(C(C)C)c2n1 | 98.6%
22 | COc1ccc(-c2cnc3c(-c4ccsc4)cnn3c2)cc1 | 63.7%

biological target: BTK (human) (UniProt Q06187); assay: as above; settings: compound 0.5 µM; ATP 10 µM

Row | SMILES | residual activity
23 | Oc1ccc(-c2nc(-c3ccc(F)cc3)c(-c3ccncc3)[nH]2)cc1 | 101%
24 | Cc1ccc(NC(=O)c2ccc(CN3CCN(C)CC3)cc2)cc1Nc1nc(-c2cccnc2)cs1 | 99.6%
25 | CC(C)[C@H](CO)Nc1nc(Nc2cccc(Cl)c2)c2ncn(C(C)C)c2n1 | 75.6%
26 | COc1ccc(-c2cnc3c(-c4ccsc4)cnn3c2)cc1 | 97.1%

biological target: STK16 (human) (UniProt O75716); assay: as above; settings: compound 0.5 µM; ATP 10 µM
Sequence (O75716 whole entry, looked up): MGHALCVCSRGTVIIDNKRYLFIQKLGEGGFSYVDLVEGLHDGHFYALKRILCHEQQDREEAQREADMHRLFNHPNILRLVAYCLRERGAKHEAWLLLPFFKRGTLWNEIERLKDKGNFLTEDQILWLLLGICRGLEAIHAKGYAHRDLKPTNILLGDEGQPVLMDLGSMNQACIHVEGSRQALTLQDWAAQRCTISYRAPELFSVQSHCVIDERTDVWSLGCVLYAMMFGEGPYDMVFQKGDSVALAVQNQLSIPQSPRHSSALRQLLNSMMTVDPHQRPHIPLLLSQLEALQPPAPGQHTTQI

Row | SMILES | residual activity
27 | Oc1ccc(-c2nc(-c3ccc(F)cc3)c(-c3ccncc3)[nH]2)cc1 | 111%
28 | Cc1ccc(NC(=O)c2ccc(CN3CCN(C)CC3)cc2)cc1Nc1nc(-c2cccnc2)cs1 | 103%
29 | CC(C)[C@H](CO)Nc1nc(Nc2cccc(Cl)c2)c2ncn(C(C)C)c2n1 | 102%
30 | COc1ccc(-c2cnc3c(-c4ccsc4)cnn3c2)cc1 | 66.9%

biological target: CDK5 CDK5R1 p25 (human) (UniProt Q00535+Q15078); assay: as above; settings: compound 0.5 µM; ATP 10 µM

Row | SMILES | residual activity
31 | Oc1ccc(-c2nc(-c3ccc(F)cc3)c(-c3ccncc3)[nH]2)cc1 | 96%
32 | Cc1ccc(NC(=O)c2ccc(CN3CCN(C)CC3)cc2)cc1Nc1nc(-c2cccnc2)cs1 | 104%
33 | CC(C)[C@H](CO)Nc1nc(Nc2cccc(Cl)c2)c2ncn(C(C)C)c2n1 | 3.87%
34 | COc1ccc(-c2cnc3c(-c4ccsc4)cnn3c2)cc1 | 73%

biological target: NEK7 (human) (UniProt Q8TDX7); assay: as above; settings: compound 0.5 µM; ATP 10 µM

Row | SMILES | residual activity
35 | Oc1ccc(-c2nc(-c3ccc(F)cc3)c(-c3ccncc3)[nH]2)cc1 | 103%
36 | Cc1ccc(NC(=O)c2ccc(CN3CCN(C)CC3)cc2)cc1Nc1nc(-c2cccnc2)cs1 | 96.3%
37 | CC(C)[C@H](CO)Nc1nc(Nc2cccc(Cl)c2)c2ncn(C(C)C)c2n1 | 101%
38 | COc1ccc(-c2cnc3c(-c4ccsc4)cnn3c2)cc1 | 109%

biological target: CDK6 CCND3 (human) (UniProt P30281+Q00534); assay: as above; settings: compound 0.5 µM; ATP 10 µM
Sequence (P30281 whole entry, looked up): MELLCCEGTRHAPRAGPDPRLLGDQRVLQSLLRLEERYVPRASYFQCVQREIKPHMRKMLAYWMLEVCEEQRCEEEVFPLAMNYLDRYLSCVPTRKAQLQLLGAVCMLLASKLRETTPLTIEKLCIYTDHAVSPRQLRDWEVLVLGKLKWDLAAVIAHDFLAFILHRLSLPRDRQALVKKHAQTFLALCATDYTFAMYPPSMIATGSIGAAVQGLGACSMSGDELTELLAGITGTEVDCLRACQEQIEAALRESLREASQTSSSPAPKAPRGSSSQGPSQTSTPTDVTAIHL
Sequence (Q00534 whole entry, looked up): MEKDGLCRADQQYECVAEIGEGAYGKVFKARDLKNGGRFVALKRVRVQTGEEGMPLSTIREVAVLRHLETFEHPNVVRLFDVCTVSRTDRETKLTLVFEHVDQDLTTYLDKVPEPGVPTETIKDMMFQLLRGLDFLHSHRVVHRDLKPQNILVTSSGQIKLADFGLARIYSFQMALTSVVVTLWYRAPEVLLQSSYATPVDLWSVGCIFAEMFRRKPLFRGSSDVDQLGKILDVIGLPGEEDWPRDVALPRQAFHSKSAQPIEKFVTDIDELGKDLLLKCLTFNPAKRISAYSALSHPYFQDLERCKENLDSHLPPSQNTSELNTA

Row | SMILES | residual activity
39 | Oc1ccc(-c2nc(-c3ccc(F)cc3)c(-c3ccncc3)[nH]2)cc1 | 104%
40 | Cc1ccc(NC(=O)c2ccc(CN3CCN(C)CC3)cc2)cc1Nc1nc(-c2cccnc2)cs1 | 90.5%
41 | CC(C)[C@H](CO)Nc1nc(Nc2cccc(Cl)c2)c2ncn(C(C)C)c2n1 | 71%
42 | COc1ccc(-c2cnc3c(-c4ccsc4)cnn3c2)cc1 | 33.4%

biological target: PBK (human) (UniProt Q96KB5); assay: as above; settings: compound 0.5 µM; ATP 10 µM
Sequence (Q96KB5 whole entry, looked up): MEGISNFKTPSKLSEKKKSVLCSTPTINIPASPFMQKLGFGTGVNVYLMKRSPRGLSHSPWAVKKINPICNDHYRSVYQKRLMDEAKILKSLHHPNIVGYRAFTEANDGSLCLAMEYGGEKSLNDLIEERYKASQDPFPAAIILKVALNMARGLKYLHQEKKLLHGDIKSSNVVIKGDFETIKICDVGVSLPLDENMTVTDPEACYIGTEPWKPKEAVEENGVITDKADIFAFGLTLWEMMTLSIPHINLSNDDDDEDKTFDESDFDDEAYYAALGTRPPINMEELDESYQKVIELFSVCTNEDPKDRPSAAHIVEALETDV

Row | SMILES | residual activity
43 | Oc1ccc(-c2nc(-c3ccc(F)cc3)c(-c3ccncc3)[nH]2)cc1 | 100%
44 | Cc1ccc(NC(=O)c2ccc(CN3CCN(C)CC3)cc2)cc1Nc1nc(-c2cccnc2)cs1 | 99.6%
45 | CC(C)[C@H](CO)Nc1nc(Nc2cccc(Cl)c2)c2ncn(C(C)C)c2n1 | 102%
46 | COc1ccc(-c2cnc3c(-c4ccsc4)cnn3c2)cc1 | 91.6%

biological target: TSSK2 (human) (UniProt Q96PF2); assay: as above; settings: compound 0.5 µM; ATP 10 µM

Row | SMILES | residual activity
47 | Oc1ccc(-c2nc(-c3ccc(F)cc3)c(-c3ccncc3)[nH]2)cc1 | 93.1%
48 | Cc1ccc(NC(=O)c2ccc(CN3CCN(C)CC3)cc2)cc1Nc1nc(-c2cccnc2)cs1 | 102%
49 | CC(C)[C@H](CO)Nc1nc(Nc2cccc(Cl)c2)c2ncn(C(C)C)c2n1 | 97.5%
50 | COc1ccc(-c2cnc3c(-c4ccsc4)cnn3c2)cc1 | 99%

biological target: INSRR (human) (UniProt P14616); assay: as above; settings: compound 0.5 µM; ATP 10 µM
Sequence (P14616 whole entry, looked up): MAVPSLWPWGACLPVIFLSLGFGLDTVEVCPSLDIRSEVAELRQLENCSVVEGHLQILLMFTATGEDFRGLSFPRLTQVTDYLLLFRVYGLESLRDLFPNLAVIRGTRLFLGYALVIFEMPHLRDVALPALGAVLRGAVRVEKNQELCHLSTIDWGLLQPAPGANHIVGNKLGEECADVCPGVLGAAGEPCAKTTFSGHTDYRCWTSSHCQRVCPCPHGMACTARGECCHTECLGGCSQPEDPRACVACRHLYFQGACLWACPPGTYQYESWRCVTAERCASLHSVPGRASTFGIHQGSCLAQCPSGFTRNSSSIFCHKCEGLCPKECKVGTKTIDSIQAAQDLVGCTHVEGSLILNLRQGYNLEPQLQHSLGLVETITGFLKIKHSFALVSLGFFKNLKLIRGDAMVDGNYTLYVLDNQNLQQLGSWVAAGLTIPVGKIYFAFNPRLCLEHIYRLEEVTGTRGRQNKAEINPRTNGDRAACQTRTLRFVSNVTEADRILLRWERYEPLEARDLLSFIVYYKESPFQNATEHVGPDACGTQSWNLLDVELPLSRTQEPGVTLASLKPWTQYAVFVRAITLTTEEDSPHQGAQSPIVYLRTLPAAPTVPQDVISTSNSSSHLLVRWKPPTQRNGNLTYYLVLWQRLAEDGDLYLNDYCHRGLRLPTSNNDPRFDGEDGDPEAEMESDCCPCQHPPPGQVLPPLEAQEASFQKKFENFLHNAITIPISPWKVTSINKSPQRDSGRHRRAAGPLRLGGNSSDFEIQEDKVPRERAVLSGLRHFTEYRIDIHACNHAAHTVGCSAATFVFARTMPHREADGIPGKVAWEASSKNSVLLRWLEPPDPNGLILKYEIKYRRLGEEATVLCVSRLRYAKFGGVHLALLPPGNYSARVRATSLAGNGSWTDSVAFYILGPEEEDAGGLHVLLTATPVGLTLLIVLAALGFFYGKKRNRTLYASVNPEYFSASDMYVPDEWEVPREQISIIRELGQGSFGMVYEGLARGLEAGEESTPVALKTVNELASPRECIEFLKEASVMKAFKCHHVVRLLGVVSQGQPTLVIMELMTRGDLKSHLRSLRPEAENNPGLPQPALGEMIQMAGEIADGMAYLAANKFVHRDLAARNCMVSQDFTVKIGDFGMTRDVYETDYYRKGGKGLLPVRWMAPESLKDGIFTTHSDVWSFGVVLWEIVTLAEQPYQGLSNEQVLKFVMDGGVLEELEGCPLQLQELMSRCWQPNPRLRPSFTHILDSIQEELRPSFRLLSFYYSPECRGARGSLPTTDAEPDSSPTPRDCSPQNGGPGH

Row | SMILES | residual activity
51 | Oc1ccc(-c2nc(-c3ccc(F)cc3)c(-c3ccncc3)[nH]2)cc1 | 98%
52 | Cc1ccc(NC(=O)c2ccc(CN3CCN(C)CC3)cc2)cc1Nc1nc(-c2cccnc2)cs1 | 102%
53 | CC(C)[C@H](CO)Nc1nc(Nc2cccc(Cl)c2)c2ncn(C(C)C)c2n1 | 88.2%
54 | COc1ccc(-c2cnc3c(-c4ccsc4)cnn3c2)cc1 | 98.7%

biological target: STK25 (human) (UniProt O00506); assay: as above; settings: compound 0.5 µM; ATP 10 µM

Row | SMILES | residual activity
55 | Oc1ccc(-c2nc(-c3ccc(F)cc3)c(-c3ccncc3)[nH]2)cc1 | 115%
56 | Cc1ccc(NC(=O)c2ccc(CN3CCN(C)CC3)cc2)cc1Nc1nc(-c2cccnc2)cs1 | 95.5%
57 | CC(C)[C@H](CO)Nc1nc(Nc2cccc(Cl)c2)c2ncn(C(C)C)c2n1 | 116%
58 | COc1ccc(-c2cnc3c(-c4ccsc4)cnn3c2)cc1 | 102%

biological target: MAPKAPK3 (human) (UniProt Q16644); assay: as above; settings: compound 0.5 µM; ATP 10 µM
Sequence (Q16644 whole entry, looked up): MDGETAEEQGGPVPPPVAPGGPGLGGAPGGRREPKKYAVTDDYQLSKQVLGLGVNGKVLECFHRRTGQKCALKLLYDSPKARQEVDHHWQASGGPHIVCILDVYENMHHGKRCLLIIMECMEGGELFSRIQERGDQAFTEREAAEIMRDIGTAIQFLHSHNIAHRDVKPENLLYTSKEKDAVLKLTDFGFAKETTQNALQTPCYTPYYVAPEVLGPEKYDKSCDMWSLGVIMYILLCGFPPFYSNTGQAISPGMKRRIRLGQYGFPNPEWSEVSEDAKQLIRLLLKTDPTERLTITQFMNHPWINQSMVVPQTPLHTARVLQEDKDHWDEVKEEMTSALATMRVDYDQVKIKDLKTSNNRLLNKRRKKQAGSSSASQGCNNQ

Row | SMILES | residual activity
59 | Oc1ccc(-c2nc(-c3ccc(F)cc3)c(-c3ccncc3)[nH]2)cc1 | 101%
60 | Cc1ccc(NC(=O)c2ccc(CN3CCN(C)CC3)cc2)cc1Nc1nc(-c2cccnc2)cs1 | 97.9%
61 | CC(C)[C@H](CO)Nc1nc(Nc2cccc(Cl)c2)c2ncn(C(C)C)c2n1 | 85.4%
62 | COc1ccc(-c2cnc3c(-c4ccsc4)cnn3c2)cc1 | 97.5%

biological target: MAPK3 (human) (UniProt P27361); assay: as above; settings: compound 0.5 µM; ATP 10 µM
Sequence (P27361 whole entry, looked up): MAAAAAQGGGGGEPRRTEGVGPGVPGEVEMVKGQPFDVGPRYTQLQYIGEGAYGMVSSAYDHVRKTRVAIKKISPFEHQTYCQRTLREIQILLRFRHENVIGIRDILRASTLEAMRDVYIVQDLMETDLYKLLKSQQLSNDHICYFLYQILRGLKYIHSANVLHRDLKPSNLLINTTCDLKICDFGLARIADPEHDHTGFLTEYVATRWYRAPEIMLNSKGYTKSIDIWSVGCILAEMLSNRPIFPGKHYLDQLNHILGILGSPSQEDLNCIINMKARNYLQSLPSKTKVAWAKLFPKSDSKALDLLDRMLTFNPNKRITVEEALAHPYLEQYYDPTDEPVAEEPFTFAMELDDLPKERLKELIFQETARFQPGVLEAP

Row | SMILES | residual activity
63 | Oc1ccc(-c2nc(-c3ccc(F)cc3)c(-c3ccncc3)[nH]2)cc1 | 101%
64 | Cc1ccc(NC(=O)c2ccc(CN3CCN(C)CC3)cc2)cc1Nc1nc(-c2cccnc2)cs1 | 103%
65 | CC(C)[C@H](CO)Nc1nc(Nc2cccc(Cl)c2)c2ncn(C(C)C)c2n1 | 104%
66 | COc1ccc(-c2cnc3c(-c4ccsc4)cnn3c2)cc1 | 99.5%

biological target: CLK1 (human) (UniProt P49759); assay: as above; settings: compound 0.5 µM; ATP 10 µM

Row | SMILES | residual activity
67 | Oc1ccc(-c2nc(-c3ccc(F)cc3)c(-c3ccncc3)[nH]2)cc1 | 107%
68 | Cc1ccc(NC(=O)c2ccc(CN3CCN(C)CC3)cc2)cc1Nc1nc(-c2cccnc2)cs1 | 101%
69 | CC(C)[C@H](CO)Nc1nc(Nc2cccc(Cl)c2)c2ncn(C(C)C)c2n1 | 67.5%
70 | COc1ccc(-c2cnc3c(-c4ccsc4)cnn3c2)cc1 | 82.8%

biological target: PRKX (human) (UniProt P51817); assay: as above; settings: compound 0.5 µM; ATP 10 µM
Sequence (P51817 whole entry, looked up): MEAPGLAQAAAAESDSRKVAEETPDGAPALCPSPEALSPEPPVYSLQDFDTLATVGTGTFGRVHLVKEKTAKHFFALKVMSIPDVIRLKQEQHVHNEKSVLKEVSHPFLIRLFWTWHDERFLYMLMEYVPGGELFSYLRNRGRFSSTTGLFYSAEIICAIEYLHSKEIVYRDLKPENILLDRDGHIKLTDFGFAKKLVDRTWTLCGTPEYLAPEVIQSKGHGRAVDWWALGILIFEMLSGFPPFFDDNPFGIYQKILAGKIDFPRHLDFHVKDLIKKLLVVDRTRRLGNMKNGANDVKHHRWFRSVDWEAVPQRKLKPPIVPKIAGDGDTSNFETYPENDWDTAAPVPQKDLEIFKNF

Row | SMILES | residual activity
71 | Oc1ccc(-c2nc(-c3ccc(F)cc3)c(-c3ccncc3)[nH]2)cc1 | 84%
72 | Cc1ccc(NC(=O)c2ccc(CN3CCN(C)CC3)cc2)cc1Nc1nc(-c2cccnc2)cs1 | 99.5%
73 | CC(C)[C@H](CO)Nc1nc(Nc2cccc(Cl)c2)c2ncn(C(C)C)c2n1 | 97.4%
74 | COc1ccc(-c2cnc3c(-c4ccsc4)cnn3c2)cc1 | 89.5%

biological target: NLK (human) (UniProt Q9UBE8); assay: as above; settings: compound 0.5 µM; ATP 10 µM

Row | SMILES | residual activity
75 | Oc1ccc(-c2nc(-c3ccc(F)cc3)c(-c3ccncc3)[nH]2)cc1 | 46.1%
76 | Cc1ccc(NC(=O)c2ccc(CN3CCN(C)CC3)cc2)cc1Nc1nc(-c2cccnc2)cs1 | 106%
77 | CC(C)[C@H](CO)Nc1nc(Nc2cccc(Cl)c2)c2ncn(C(C)C)c2n1 | 99.2%
78 | COc1ccc(-c2cnc3c(-c4ccsc4)cnn3c2)cc1 | 74.5%

biological target: STK39 (human) (UniProt Q9UEW8); assay: as above; settings: compound 0.5 µM; ATP 10 µM

Row | SMILES | residual activity
79 | Oc1ccc(-c2nc(-c3ccc(F)cc3)c(-c3ccncc3)[nH]2)cc1 | 94.8%
80 | Cc1ccc(NC(=O)c2ccc(CN3CCN(C)CC3)cc2)cc1Nc1nc(-c2cccnc2)cs1 | 94%
81 | CC(C)[C@H](CO)Nc1nc(Nc2cccc(Cl)c2)c2ncn(C(C)C)c2n1 | 99.2%
82 | COc1ccc(-c2cnc3c(-c4ccsc4)cnn3c2)cc1 | 95.1%
